Data published in US12570666B2, “Furoindazole derivatives” (Bayer Aktiengesellschaft, priority 2019, dated 2026).

Target: T1, human GPR84 receptor (Homo sapiens, UniProt Q9NQS5)
T1 construct: frozen aliquots prepared by acCELLerate; host or cells: CHO-K1
Experiment: cAMP HTRF assay for identification of cellular GPR84 antagonists
Assay type: cell-based
Conditions: CHO-K1 cells stably expressing human GPR84; Forskolin + agonist 6-OAU (EC80); average or median values
Outline: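 Forskolin-stimulated CHO-K1 cells stably expressing human GPR84, agonist-suppressed cAMP measured by HTRF (665/620 ratio) after lysis. Compounds at 11 concentrations, 20 μM to 0.07 nM, duplicate; normalized to DMSO and no-agonist controls; IC50 by 4-parameter fit.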

T1 sequence (Q9NQS5 whole entry): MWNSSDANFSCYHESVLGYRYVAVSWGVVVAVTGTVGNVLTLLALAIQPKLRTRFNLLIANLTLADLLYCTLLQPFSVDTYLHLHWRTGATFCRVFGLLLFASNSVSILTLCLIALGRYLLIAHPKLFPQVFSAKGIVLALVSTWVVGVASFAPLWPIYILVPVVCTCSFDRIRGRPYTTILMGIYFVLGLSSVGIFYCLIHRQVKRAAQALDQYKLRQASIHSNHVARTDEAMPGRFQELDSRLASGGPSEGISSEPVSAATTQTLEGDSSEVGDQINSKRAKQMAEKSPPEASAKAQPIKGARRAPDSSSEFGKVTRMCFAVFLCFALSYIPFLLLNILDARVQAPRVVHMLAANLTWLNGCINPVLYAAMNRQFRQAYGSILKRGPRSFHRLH

| SMILES | IC50 |
| --- | --- |
| O=C(NCc1ncco1)c1oc2c(c1C(F)(F)F)-c1nn(C[C@H]3COCCO3)cc1C1(CCC1)C2 [Example 272, 2′-{[(2S)-1,4-dioxan-2-yl]methyl}-N-[(1,3-oxazol-2-yl)methyl]-8′-(trifluoromethyl)-2′,51-dihydrospiro[cyclobutane-1,4′-furo[2,3-g]indazole]-7′-carboxamide] | 0.042 µM |
| O=C(NC[C@@H]1CCCO1)c1oc2c(c1C(F)(F)F)-c1nn(CC3CCN(C(=O)c4ccccc4)CC3)cc1CC2 [Example 288, 2-[(1-benzoylpiperidin-4-yl)methyl]-N-{[(2S)-oxolan-2-yl]methyl}-8-(trifluoromethyl)-4,5-dihydro-2H-furo[2,3-g]indazole-7-carboxamide] | 0.101 µM |
| Cc1c(C(=O)NC[C@@H]2COCCO2)oc2c1-c1nn(C(=O)N(C)C)cc1C1(CC1)C2 [Example 154] | 0.27 µM |
| CC(=O)N1CC(F)(Cn2cc3c(n2)-c2c(oc(C(=O)NC[C@@H]4CCCO4)c2C)CC3)C1 [Example 165, 2-[(1-acetyl-3-fluoroazetidin-3-yl)methyl]-8-methyl-N-[(2S)-tetrahydrofuran-2-ylmethyl]-4,5-dihydro-2H-furo[2,3-g]indazole-7-carboxamide] | 0.11 µM |
| Cc1c(C(=O)NC[C@@H]2CCCO2)oc2c1-c1nn(CC3CCCCO3)cc1CC2 (mixture of isomers) [Example 190] | 0.238 µM |
| O=C(NC[C@@H]1CCCO1)c1oc2c(c1C(F)(F)F)-c1nn(CC3CCN(C(=O)C4CC4)CC3)cc1CC2 [Example 286, 2-{[1-(cyclopropanecarbonyl)piperidin-4-yl]methyl}-N-{[(2S)-oxolan-2-yl]methyl}-8-(trifluoromethyl)-4,5-dihydro-2H-furo[2,3-g]indazole-7-carboxamide] | 0.011 µM |
| CC1(C)CC[C@H](CNC(=O)c2oc3c(c2C(F)(F)F)-c2nn(C[C@H]4COCCO4)cc2CC3)O1 (single isomer, unassigned) [Example 223-1, N-{[(2R or 2S)-5,5-dimethyloxolan-2-yl]methyl}-2-{[(2S)-1,4-dioxan-2-yl]methyl}-8-(trifluoromethyl)-4,5-dihydro-2H-furo[2,3-g]indazole-7-carboxamide] | 0.012 µM |
| Cc1c(C(=O)NC[C@@H]2CCCO2)oc2c1-c1nn(C[C@@H]3CCOC3)cc1CC2 [Example 113, 8-methyl-N-[(2S)-tetrahydrofuran-2-ylmethyl]-2-[(3S)-tetrahydrofuran-3-ylmethyl]-4,5-dihydro-2H-furo[2,3-g]indazole-7-carboxamide] | 0.091 µM |
| Cc1c(C(=O)NC[C@@H]2CCCO2)oc2c1-c1nn(CC3CC3)cc1C1(CC1)C2 [Example 129, 2′-(cyclopropylmethyl)-8′-methyl-N-[(2S)-tetrahydrofuran-2-ylmethyl]-2′,5′-dihydrospiro[cyclopropane-1,4′-furo[2,3-g]indazole]-7′-carboxamide] | 0.055 µM |
| Cc1ccc(Cn2cc3c(n2)-c2c(oc(C(=O)NC[C@@H]4COCCO4)c2C(F)(F)F)CC3)cn1 [Example 191] | 0.008 µM |
| Cc1c(C(=O)NCc2cc(C3CC3)on2)oc2c1-c1nn(CC3COc4ncccc4O3)cc1CC2 (single isomer, unassigned) [Example 50-1] | 0.11 µM |
| Cc1c(C(=O)NCC(C)(C)O)oc2c1-c1nn(Cc3ccccn3)cc1CC2 [Example 10, N-(2-hydroxy-2-methylpropyl)-8-methyl-2-(pyridin-2-ylmethyl)-4,5-dihydro-2H-furo[2,3-g]indazole-7-carboxamide] | > 20 µM |
| Cc1c(C(=O)NCC2CCC3(COC3)O2)oc2c1-c1nn(C[C@H]3COCCO3)cc1C1(CC1)C2 (mixture of isomers) [Example 201] | 0.08 µM |
| Cc1ccc(Cn2cc3c(n2)-c2c(oc(C(=O)NCc4ccn(C)n4)c2C(F)(F)F)CC32CCC2)nc1 [Example 279, N-[(1-Methyl-1H-pyrazol-3-yl)methyl]-2′-[(5-methylpyridin-2-yl)methyl]-8′-(trifluormethyl)-2′,5′-dihydrospiro[cyclobutan-1,4′-furo[2,3-g]indazol]-7′-carboxamide] | 0.053 µM |
| Cc1ccn(CCNC(=O)c2oc3c(c2C(F)(F)F)-c2nn(C[C@H]4COCCO4)cc2CC3)n1 [Example 234, 2-[(2S)-1,4-Dioxan-2-ylmethyl]-N-[2-(3-methyl-1H-pyrazol-1-yl)ethyl]-8-(trifluormethyl)-4,5-dihydro-2H-furo[2,3-g]indazol-7-carboxamide] | 3.47 µM |
| Cc1c(C(=O)NCC2CC(C)CO2)oc2c1-c1nn(C[C@H]3COCCO3)cc1C1(CC1)C2 (mixture of isomers) [Example 199] | 0.079 µM |
| O=C(NC[C@H]1COCCO1)c1oc2c(c1C(F)(F)F)-c1nn(C[C@@H]3COCCO3)cc1CC2 [Example 301, 2-{[(2R)-1,4-dioxan-2-yl]methyl}-N-{[(2S)-1,4-dioxan-2-yl]methyl}-8-(trifluoromethyl)-4,5-dihydro-2H-furo[2,3-g]indazole-7-carboxamide] | 0.723 µM |

| SMILES | IC50 |
| --- | --- |
| O=C(NCc1nccs1)c1oc2c(c1C(F)(F)F)-c1nn(C[C@H]3COCCO3)cc1CC2 [Example 226, 2-[(2S)-1,4-Dioxan-2-ylmethyl]-N-(1,3-thiazol-2-ylmethyl)-8-(trifluormethyl)-4,5-dihydro-2H-furo[2,3-g]indazol-7-carboxamide] | 0.016 µM |
| Cc1c(C(=O)NCC2OCCC2(C)C)oc2c1-c1nn(Cc3ccccn3)cc1CC2 (racemic) [Example 179] | 6.41 µM |
| Cc1c(C(=O)NC[C@@H]2COCCO2)oc2c1-c1nn(CCN3CCN(C(=O)OC(C)(C)C)CC3)cc1CC2 [Example 142, tert-butyl 4-[2-(7-{[(2R)-1,4-dioxan-2-ylmethyl]carbamoyl}-8-methyl-4,5-dihydro-2H-furo[2,3-g]indazol-2-yl)ethyl]piperazine-1-carboxylate] | 0.67 µM |
| Cc1c(C(=O)Nc2ccc(C#N)cc2)oc2c1-c1nn(Cc3ccccn3)cc1CC2 [Example 43, N-(4-cyanophenyl)-8-methyl-2-(pyridin-2-ylmethyl)-4,5-dihydro-2H-furo[2,3-g]indazole-7-carboxamide] | 11.1 µM |
| Cc1c(C(=O)NCC2CCCCO2)oc2c1-c1nn(Cc3ccccn3)cc1CC2 (racemic) [Example 172] | 12 µM |
| Cc1ccc(Cn2cc3c(n2)-c2c(oc(C(=O)NC[C@@H]4CCCO4)c2C(F)(F)F)CC32CC2)cn1 [Example 213, 2′-[(6-methylpyridin-3-yl)methyl]-N-{[(2S)-oxolan-2-yl]methyl}-8′-(trifluoromethyl)-2′,5′-dihydrospiro[cyclopropane-1,4′-furo[2,3-g]indazole]-7′-carboxamide] | 0.007 µM |
| Cc1c(C(=O)NCC2CCO2)oc2c1-c1nn(Cc3ccccn3)cc1CC2 (racemic) [Example 35, 8-methyl-N-[(2R/S)-oxetan-2-ylmethyl]-2-(pyridin-2-ylmethyl)-4,5-dihydro-2H-furo[2,3-g]indazole-7-carboxamide] | 0.47 µM |
| Cc1c(C(=O)NC[C@@H]2CCCO2)oc2c1-c1nn(Cc3ncccc3Cl)cc1CC2 [Example 60, 2-[(3-chloropyridin-2-yl)methyl]-8-methyl-N-[(2S)-tetrahydrofuran-2-ylmethyl]-4,5-dihydro-2H-furo[2,3-g]indazole-7-carboxamide] | 0.027 µM |
| O=C(NC[C@@H]1CCCO1)c1oc2c(c1C(F)(F)F)-c1nn(Cc3ccccn3)cc1CC2 [Example 115, 2-(pyridin-2-ylmethyl)-N-[(2S)-tetrahydrofuran-2-ylmethyl]-8-(trifluoromethyl)-4,5-dihydro-2H-furo[2,3-g]indazole-7-carboxamide] | 0.027 µM |
| Cc1c(C(=O)NC[C@@H]2COCCO2)oc2c1-c1nn(CC3CN(C(=O)OC(C)(C)C)C3)cc1CC2 [Example 110, tert-butyl 3-[(7-{[(2R)-1,4-dioxan-2-ylmethyl]carbamoyl}-8-methyl-4,5-dihydro-2H-furo[2,3-g]indazol-2-yl)methyl]azetidine-1-carboxylate] | 0.01 µM |
| O=C(NC[C@@H]1COCCO1)c1oc2c(c1C(F)(F)F)-c1nn(C[C@H]3COCCO3)cc1CC2 [Example 320, N-{[(2R)-1,4-dioxan-2-yl]methyl}-2-{[(2S)-1,4-dioxan-2-yl]methyl}-8-(trifluoromethyl)-4,5-dihydro-2H-furo[2,3-g]indazole-7-carboxamide] | 0.012 µM |
| Cc1c(C(=O)NC[C@@H]2COCCO2)oc2c1-c1nn(C[C@@H]3CCCO3)cc1CC2 [Example 108, N[(2R)-1,4-dioxan-2-ylmethyl]-8-methyl-2-[(2S)-tetrahydrofuran-2-ylmethyl]-4,5-dihydro-2H-furo[2,3-g]indazole-7-carboxamide] | 0.058 µM |
| Cc1cc(Cn2cc3c(n2)-c2c(oc(C(=O)NC[C@@H]4CCCO4)c2C)CC3)cc(C)n1 [Example 81, 2-[(2,6-dimethylpyridin-4-yl)methyl]-8-methyl-N-[(2S)-tetrahydrofuran-2-ylmethyl]-4,5-dihydro-2H-furo[2,3-g]indazole-7-carboxamide] | 0.38 µM |
| O=C(NC[C@@H]1COCCO1)c1oc2c(c1C(F)(F)F)-c1nn(C[C@@H]3COCCO3)cc1CC2 [Example 220, N,2-bis{[(2R)-1,4-dioxan-2-yl]methyl}-8-(trifluoromethyl)-4,5-dihydro-2H-furo[2,3-g]indazole-7-carboxamide] | 0.018 µM |
| Cc1c(C(=O)NCC2CCCO2)oc2c1-c1nn(CC3COc4ncccc4O3)cc1CC2 (single isomer, unassigned) [Example 52-2] | 0.016 µM |
| CC1Cc2oc(C(=O)NC[C@@H]3CCCO3)c(C(F)(F)F)c2-c2nn(C[C@H]3COCCO3)cc21 (mixture of isomers) [Example 255, (4±)-2-{[(2S)-1,4-dioxan-2-yl]methyl}-4-methyl-N-{[(2S)-oxolan-2-yl]methyl}-8-(trifluoromethyl)-4,5-dihydro-2H-furo[2,3-g]indazole-7-carboxamide] | 0.005 µM |
| Cc1c(C(=O)NCc2ccon2)oc2c1-c1nn(CC3COc4ncccc4O3)cc1CC2 (single isomer, unassigned) [Example 55-2] | 0.043 µM |
